Counter-ions that a name gives are not always drawn.
Key:
Experiment in all cases: MIC, standard broth dilution method in microtitre
Assay type in all cases: cell-based
[1] = test system: erythromycin resistant strains of Streptococcus pneumoniae
Experimental: (§1) Using a standard broth dilution method in microtitre, compounds were tested for antibacterial activity. The compounds in the above examples gave minimum inhibitory concentrations (MICs) less than 1 microgram per millilitre against erythromycin-sensitive and erythromycin-resistant strains of Streptococcus pneumoniae and Streptococcus pyogenes.

[2] = test system: erythromycin resistant strains of Streptococcus pyogenes
Experimental: as §1

[3] = test system: M. catarrhalis ATCC 23246; conditions: Moraxella catarrhalis, ATCC23246
Experimental: as §1
(§2) In addition, the MIC (μg/ml) of test compounds against various organisms was determined including:
(§3) S. aureus Smith ATCC 13709, S. pneumoniae SP030, S. pyogenes 3565, E. faecalis ATCC 29212, H. influenzae ATCC 49247, M. catarrhalis ATCC 23246.

H. influenzae ATCC 49247 = conditions: Haemophilus influenzae, ATCC49247; H. influenzae ATCC 49247; read-out: MIC
Experimental: as §1, §2, §3

E. faecalis ATCC 29212 = conditions: Enterococcus faecalis, ATCC29212
Experimental: as §1, §2, §3

S. pyogenes 3565 = conditions: Streptococcus pyogenes
Experimental: as §1, §2, §3

S. pneumoniae SP030 = conditions: Streptococcus pneumoniae
Experimental: as §1, §2, §3

[4] = test system: S. aureus Smith ATCC 13709; conditions: Staphylococcus aureus, ATCC13709
Experimental: as §1, §2, §3

SMILES | MIC [1] [mg/L] | MIC [2] [mg/L] | MIC [3] [mg/L] | MIC (H. influenzae ATCC 49247) [mg/L] | MIC (E. faecalis ATCC 29212) [mg/L] | MIC (S. pyogenes 3565) [mg/L] | MIC (S. pneumoniae SP030) [mg/L] | MIC [4] [mg/L]
CCc1cc(C(=O)O)c(=O)n2ccc(NCCNCCCO[C@H]3[C@H](C)O[C@@H](O[C@H]4[C@H](C)[C@@H](O[C@@H]5O[C@H](C)C[C@H](N(C)C)[C@H]5O)[C@](C)(OC)C[C@@H](C)C(=O)[C@@H](C)[C@H]5NC(=O)O[C@]5(C)[C@@H](CC)OC(=O)[C@@H]4C)C[C@@]3(C)OC)cc12 [Example 26, 4″-O-{3-[2-(3-Carboxy-1-ethyl-4-oxo-4-H-quinolizin-7-ylamino)-ethylamino]-propyl}-6-O-methyl-11-desoxy-11-(R)-amino-erythromycin A 11,12-carbamate formate] | ≤ 1 | ≤ 1 |  |  |  |  |  | 
CC[C@@H]1OC(=O)[C@H](C)[C@H](O[C@@H]2C[C@](C)(OC)[C@H](OCCNCCCc3ccc4c(c3)c(=O)c(C(=O)O)cn4CC)[C@H](C)O2)[C@@H](C)[C@H](O[C@H]2O[C@@H](C)C[C@@H](N(C)C)[C@H]2O)[C@](C)(O)C[C@H](C)CN(C)[C@@H](C)[C@H]2OC(=O)O[C@@]12C [Example 16, 4″-O-{2-[3-(3-Carboxy-1-ethyl-4-oxo-1,4-dihydro-quinolin-6-yl)propylamino]ethyl}azithromycin 11,12-carbonate] |  |  | ≤ 4 | ≤ 4 |  |  |  | 
CC[C@@H]1OC(=O)[C@H](C)[C@H](O[C@@H]2C[C@](C)(OC)[C@H](OCCCNCCOc3ccc4c(c3)c(=O)c(C(=O)O)cn4CC)[C@H](C)O2)[C@@H](C)[C@H](O[C@H]2O[C@@H](C)C[C@@H](N(C)C)[C@H]2O)[C@](C)(OC)C[C@H](C)C(=O)[C@H](C)[C@H]2OC(=O)O[C@@]12C [Example 3, 4″-O-{3-[2-(3-Carboxy-1-ethyl-4-oxo-1,4-dihydro-quinolin-6-yloxy)-ethylamino]-propyl}-6-O-methyl-erythromycin A 11,12-carbonate bis trifluoroacetate] | ≤ 1 | ≤ 1 |  |  |  |  |  | 
CC[C@@H]1OC(=O)[C@H](C)[C@H](O[C@@H]2C[C@](C)(OC)[C@H](OCCCNCCNc3nc4c(cc3F)c(=O)c(C(=O)O)cn4CC)[C@H](C)O2)[C@@H](C)[C@H](O[C@H]2O[C@@H](C)C[C@@H](N(C)C)[C@H]2O)[C@](C)(OC)C[C@H](C)C(=O)[C@H](C)[C@H]2OC(=O)O[C@@]12C [Example 12, 4″-O-{3-[2-(3-Carboxy-1-ethyl-6-fluoro-4-oxo-1,4-dihydro-[1,8]naphthyridin-7-ylamino)ethylamino]-propyl}-6-O-methyl-erythromycin A 11,12-carbonate formate] | ≤ 1 | ≤ 1 |  |  |  |  |  | 
CC[C@@H]1OC(=O)[C@H](C)[C@H](O[C@@H]2C[C@](C)(OC)[C@H](OCCCNCCCc3ccc4c(c3)c(=O)c(C(=O)O)cn4CC)[C@H](C)O2)[C@@H](C)[C@H](O[C@H]2O[C@@H](C)C[C@@H](N(C)C)[C@H]2O)[C@](C)(OC)C[C@H](C)C(=O)[C@H](C)[C@H]2N(C)C(=O)O[C@@]12C [Example 7, 4″-O-{3-[2-(3-Carboxy-1-ethyl-4-oxo-1,4-dihydro-quinolin-6-yl)-propylamino]-propyl}-6-O-methyl-11-desoxy-11-(R)-methylamino-erythromycin A 11,12-carbamate formate] | ≤ 1 | ≤ 1 |  |  | ≤ 1 | ≤ 1 | ≤ 1 | ≤ 1
CC[C@@H]1OC(=O)[C@H](C)[C@H](O[C@@H]2C[C@](C)(OC)[C@H](OCCCNCCCc3ccc4c(c3)c(=O)c(C(=O)O)cn4CC)[C@H](C)O2)[C@@H](C)[C@H](O[C@H]2O[C@@H](C)C[C@@H](N(C)C)[C@H]2O)[C@](C)(OC)C[C@H](C)C(=O)[C@H](C)[C@H](O)[C@@]1(C)O [Example 5, 4″-O-{3-[3-(3-Carboxy-1-ethyl-4-oxo-1,4-dihydro-quinolin-6-yl)-propylamino]-propyl}-6-O-methyl-erythromycin A bisformate] |  |  |  |  | ≤ 1 | ≤ 1 | ≤ 1 | ≤ 1
CC[C@@H]1OC(=O)[C@H](C)[C@H](O[C@@H]2C[C@](C)(OC)[C@H](OCCCNCCCc3ccc4c(c3)c(=O)c(C(=O)O)cn4CC)[C@H](C)O2)[C@@H](C)[C@H](O[C@H]2O[C@@H](C)C[C@@H](N(C)C)[C@H]2O)[C@](C)(OC)C[C@H](C)C(=O)[C@H](C)[C@H]2OC(=O)O[C@@]12C [Example 9, 4″-O-{3-[3-(3-Carboxy-1-ethyl-4-oxo-1,4-dihydro-quinolin-6-yl)propylamino]-propyl}-6-O-methyl-erythromycin A 11,12-carbonate formate] | ≤ 1 | ≤ 1 |  |  |  |  |  | 
CC[C@@H]1OC(=O)[C@H](C)[C@H](O[C@@H]2C[C@](C)(OC)[C@H](OCCCNCCNc3cc4c(cc3F)c(=O)c(C(=O)O)cn4C3CC3)[C@H](C)O2)[C@@H](C)[C@H](O[C@H]2O[C@@H](C)C[C@@H](N(C)C)[C@H]2O)[C@](C)(OC)C[C@H](C)C(=O)[C@H](C)[C@H]2OC(=O)O[C@@]12C [Example 11, 4″-O-{3-[2-(3-Carboxy-1-cyclopropyl-6-fluoro-4-oxo-1,4-dihydro-quinolin-7-ylamino)ethylamino]-propyl}-6-O-methyl-erythromycin A 11,12-carbonate formate] | ≤ 1 | ≤ 1 |  |  |  |  |  | 
CC[C@@H]1OC(=O)[C@H](C)[C@H](O[C@@H]2C[C@](C)(OC)[C@H](OCCCNCCNc3cc4c(=O)c(C(=O)O)cn(C5CC5)c4cc3Cl)[C@H](C)O2)[C@@H](C)[C@H](O[C@H]2O[C@@H](C)C[C@@H](N(C)C)[C@H]2O)[C@](C)(OC)C[C@H](C)C(=O)[C@H](C)[C@H]2OC(=O)O[C@@]12C [Example 10, 4″-O-{3-[2-(3-Carboxy-7-chloro-1-cyclopropyl-4-oxo-1,4-dihydro-quinolin-6-ylamino)ethylamino]-propyl}-6-O-methyl-erythromycin A 11,12-carbonate formate] | ≤ 1 | ≤ 1 |  |  |  |  |  | 
CC[C@H]1OC(=O)[C@H](C)[C@@H](O[C@H]2C[C@@](C)(OC)[C@@H](OCCCNCCCc3cc4c5c(c3)c(=O)c(C(=O)O)cn5CCC4)[C@H](C)O2)[C@H](C)[C@@H](O[C@@H]2O[C@H](C)C[C@H](N(C)C)[C@H]2O)[C@](C)(OC)C[C@@H](C)C(=O)[C@@H](C)[C@H]2NC(=O)O[C@@]21C [Example 25, 4″-O-{3-[3-(2-Carboxy-1-oxo-6,7-dihydro-1H,5H-pyrido[3,2,1-ij]quinolin-9-yl)-propylamino]-propyl}-6-O-methyl-11-desoxy-11-(R)-amino-erythromycin A 11,12-carbamate formate] | ≤ 1 | ≤ 1 |  |  | ≤ 1 | ≤ 1 | ≤ 1 | ≤ 1
CC[C@@H]1OC(=O)[C@H](C)[C@H](O[C@@H]2C[C@](C)(OC)[C@H](OCCCN(C)CCNc3cc4c(=O)c(C(=O)O)cn(C5CC5)c4cc3Cl)[C@H](C)O2)[C@@H](C)[C@H](O[C@H]2O[C@@H](C)C[C@@H](N(C)C)[C@H]2O)[C@](C)(OC)C[C@H](C)C(=O)[C@H](C)[C@H]2OC(=O)O[C@@]12C [Example 14, 4″-O-(3-{[2-(3-Carboxy-7-chloro-1-cyclopropyl-4-oxo-1,4-dihydro-quinolin-6-ylamino)ethyl]-methylamino}-propyl)-6-O-methyl-erythromycin A 11,12-carbonate] | ≤ 1 | ≤ 1 | ≤ 4 | ≤ 4 |  |  |  | 
CC[C@H]1OC(=O)[C@H](C)[C@@H](O[C@H]2C[C@@](C)(OC)[C@@H](OCCCNCCCc3cnc4c(c3)c(=O)c(C(=O)O)cn4CC)[C@H](C)O2)[C@H](C)[C@@H](O[C@@H]2O[C@H](C)C[C@H](N(C)C)[C@H]2O)[C@](C)(OC)C[C@@H](C)C(=O)[C@@H](C)[C@H]2NC(=O)O[C@@]21C [Example 24, 4″-O-{3-[3-(3-Carboxy-1-ethyl-4-oxo-1,4-dihydro-6-[1,8]naphthryidinyl)-propylamino]-propyl}-6-O-methyl-11-desoxy-11-(R)-amino-erythromycin A 11,12-carbamate formate] | ≤ 1 | ≤ 1 |  |  |  |  |  | 
CC[C@@H]1OC(=O)[C@H](C)[C@H](O[C@@H]2C[C@](C)(OC)[C@H](OCCCNCCSc3ccc4c(c3)c(=O)c(C(=O)O)cn4CC)[C@H](C)O2)[C@@H](C)[C@H](O[C@H]2O[C@@H](C)C[C@@H](N(C)C)[C@H]2O)[C@](C)(OC)C[C@H](C)C(=O)[C@H](C)[C@H]2OC(=O)O[C@@]12C [Example 4, 4″-O-{3-[2-(3-Carboxy-1-ethyl-4-oxo-1,4-dihydro-quinolin-6-ylsulfanyl)-ethylamino]-propyl}-6-O-methyl-erythromycin A 11,12-carbonate bisformate] | ≤ 1 | ≤ 1 | ≤ 4 | ≤ 4 |  |  |  | 
CC[C@H]1OC(=O)[C@H](C)[C@@H](O[C@H]2C[C@@](C)(OC)[C@@H](OCCCNCCOc3cc4c5c(c3)c(=O)c(C(=O)O)cn5CCC4)[C@H](C)O2)[C@H](C)[C@@H](O[C@@H]2O[C@H](C)CC(N(C)C)[C@H]2O)[C@](C)(OC)C[C@@H](C)C(=O)[C@@H](C)[C@H]2NC(=O)O[C@@]21C (stereo partly drawn) [Example 22, 4″-O-{3-[2-(2-Carboxy-1-oxo-6,7-dihydro-1H,5H-pyrido[3,2,1-ij]quinolin-9-yloxy)-ethylamino]-propyl}-6-O-methyl-11-desoxy-11-(R)-amino-erythromycin A 11,12-carbamate formate] | ≤ 1 | ≤ 1 |  |  | ≤ 1 | ≤ 1 | ≤ 1 | ≤ 1
